Data reported in patent US20200289474A1, “METHODS OF TREATING PAIN WITH A THIAZOLINE ANTI-HYPERALGESIC” (priority 2019, published 2020).
Entries after “also recorded” stand apart in the source; their conditions may differ.

Assays:
HEK293 cells = assay: cytotoxicity by lactate dehydrogenase (LDH) release; format: cell-based
[1] = test system: STZ-induced mechanical allodynia; assay: streptozotocin (STZ)-induced diabetic rats, first experiment; format: in vivo, rat
Procedure: FIG. 14 illustrates non-limiting reversal of mechanical hypersensitivity by Compound 1 in a diabetic neuropathy model, in accordance with various embodiments. Streptozotocin (STZ) destroys insulin-producing cells and generates a diabetic phenotype in […]. Animals were dosed with STZ on day −7. By day 0 animals are hyperglycemic and hyperalgesic (day 0 BL).
(§1) Experiments were conducted to determine the effect of Compound 1 in streptozotocin (STZ)-induced diabetic rats. In the first experiment, after obtaining mechanical threshold baselines, STZ (50 mg/kg IV) was administered (Day −7). Two days later, blood glucose levels were measured and animals that were hyperglycemic (>250 mg/dL) continued in the study. On Day 0 the baseline for mechanical thresholds prior to dosing with test articles was established for the rats. Compound 1 (10, 30, and 100 mg/kg PO), gabapentin (100 mg/kg PO) or vehicle was then administered daily for 5 days. On Day 0 mechanical thresholds were obtained at 1, 3, and 6 h post-dose. On Day 1 mechanical thresholds were measured immediately prior to dosing and then 3 h post-dose. The same regimen was followed on Day 3.

PN-mediated cytotoxicity = assay: cell-based assays of PN-mediated cytotoxicity
Caco-2 cells = assay: cytotoxicity by lactate dehydrogenase (LDH) release; format: cell-based
lactoperoxidase = lactoperoxidase oxidation (mediated by peroxide); format: biochemical; settings: physiological conditions (neutral pH)
[2] = beagle dog single dose study IV 10 mg/kg, oral 10 and 100 mg/kg; format: in vivo; settings: fasted beagle dogs
Procedure: In another study Compound 1 was administered IV as a single dose to fasted beagle dogs at 10 mg/kg and orally at 10 and 100 mg/kg. Compound 1 was rapidly and well absorbed orally, within 1 hr, reaching peak plasma concentrations of 15 and 108 μg/mL at 10 and 100 mg/kg doses, respectively. The compound distributed readily in tissues with a moderate steady-state volume of distribution (0.3 L/kg).

peroxynitrite (PN) = assay: chemical-based assays of peroxynitrite (PN) oxidation; format: biochemical; settings: chemical-based assay
[3] = test system: STZ-induced mechanical allodynia; assay: STZ-induced diabetic rats, subsequent study; format: in vivo, rat
Procedure: as §1
In a subsequent study, the same STZ paradigm was followed. However, in addition to the 100 mg/kg Compound 1 group, two additional cohorts received the Compound 1 100 mg/kg dose split into two or three doses per day with 50 mg/kg BID and 33 mg/kg TID. In addition to the gabapentin (100 mg/kg PO) group, a separate cohort received duloxetine (30 mg/kg PO). Additionally, in this study mechanical threshold testing was implemented every day immediately prior to dosing and 2 h post-dose for 7 days.

[4] = rat single dose excretion/metabolite study (urine and feces); format: in vivo
Text: Further metabolism work in additional species will be undertaken.

[5] = rat 7-day repeat dose PO study (toxicokinetics)
[6] = rat brain distribution study; format: in vivo
Text: A rat brain distribution study performed in order to determine standard pharmacokinetic parameters and to assess the brain penetration properties of Compound 1 administered orally and intravenously. […] The compound distributed readily in tissues with a steady-state volume of distribution of 1.7 L/kg.

[7] = dog 7-day repeat dose PO study; format: in vivo; settings: dog 7 Day PO, N = 1
Procedure: The objective was to develop a preliminary toxicity profile of Compound 1 following daily oral (gavage) administration for 7 days to male and female dogs to support dose selection for a 28-day toxicity study in dogs. Doses were selected based on the results of the MTD phase. Dose levels were 0 (Vehicle Control), 200, 350 and 400 mg/kg (1 dog/sex/group). The vehicle was 0.5% aqueous HPMC.
The animals used in this study were returned to the holding colony

[8] = test system: incision-induced hyperalgesia; assay: mouse incisional model (mimicking the Brennan protocol); format: in vivo; settings: 10 mg/kg IP QD, Days 1 and 3 after incision
Procedure: In a mouse incisional model (mimicking the Brennan protocol), animals were baselined for mechanical thresholds prior to incision and then given a daily dose of Compound 1 (10 mg/kg IP QD) or vehicle for 7 days.

CC1(C)SC(Nc2ccccc2O)=N[C@@H]1C(=O)O.Cl [Compound 1, (R)-2-(2-hydroxyphenylamino)-5,5-dimethyl-4,5-dihydrothiazole-4-carboxylic acid mono-hydrochloride]
cytotoxicity (LDH release) (HEK293 cells): less than 25% | reversal of allodynia (mechanical thresholds) ([1]; 10, 30, 100 mg/kg PO daily, subsequent days): statistically-significant | reversal of allodynia (mechanical thresholds) ([1]; 10, 30, 100 mg/kg PO, Day 0): non-significant reversal of allodynia | efficacy compared with gabapentin ([1]; repeated dosing, gabapentin 100 mg/kg PO, mono-hydrochloride): comparable to gabapentin | effect on allodynia, STZ diabetic neuropathy model (summary) ([1]; streptozotocin-induced, mono-hydrochloride): alleviates allodynia; also recorded: blocks STZ-induced mechanical allodynia | effect in PN-mediated cytotoxicity (PN-mediated cytotoxicity): protective | cytotoxicity (LDH release) (Caco-2 cells): less than 25% | removal of peroxynitrite in lactoperoxidase oxidation (lactoperoxidase): catalytically remove peroxynitrite | mean terminal half-life [2]: 3.9 h | steady-state volume of distribution [2]: 0.3 L/kg | oral bioavailability ([2]; both 10 and 100 mg/kg): 75% | peak plasma concentration ([2]; oral 10 mg/kg): 15 µg/mL | peak plasma concentration ([2]; oral 100 mg/kg): 108 µg/mL | time to peak plasma concentration ([2]; oral 10 and 100 mg/kg): ≤ 1 h | PN-mediated oxidation of small-molecule organic substrates such as luminol (peroxynitrite (PN)): inhibits PN-mediated oxidation | difference between dosing regimens ([3]; 100 mg/kg QD vs 50 mg/kg BID vs 33 mg/kg TID): no clear difference | reversal of allodynia ([3]; 100 mg/kg QD, 50 mg/kg BID, 33 mg/kg TID PO, 7 days, statistical significance from Day 1): reversed allodynia | administered compound recovered unchanged ([4]; rat single dose, urine and feces): 5-15% | form excreted in urine and feces ([4]; rats): primarily as a sulfate conjugate | MTD ([5]; female rats, oral gavage, 7 days): 2000 mg/kg | Cmax ([5]; rat 7 Day PO, 2000 mg/kg, Seventh Daily Dose, mean): 119 µg/mL | peak plasma concentration ([6]; rat, in vivo, po, 30 mg/kg): 9 µg/mL | time to peak plasma concentration ([6]; rat, in vivo, po, 30 mg/kg): ≤ 1 h | steady-state volume of distribution ([6]; rats): 1.7 L/kg | oral bioavailability ([6]; rats, 30 mg/kg oral dose): 111% | terminal half-life ([6]; rats, 30 mg/kg oral dose): 1.6 h | brain-to-plasma concentration ratio ([6]; rats, 1 h after IV administration): 0.02 | AUC0-last ([7]; Day 1, 200 mg/kg, F): 582 µg·h/mL | Cmax ([7]; Day 1, 200 mg/kg, F): 152 µg/mL | t1/2 ([7]; Day 1, 200 mg/kg, F): 1.3 h | AUC0-last ([7]; Day 1, 200 mg/kg, M): 538 µg·h/mL | Cmax ([7]; Day 1, 200 mg/kg, M): 150 µg/mL | t1/2 ([7]; Day 1, 200 mg/kg, M): 1.1 h | AUC0-last ([7]; Day 1, 350 mg/kg, F): 834 µg·h/mL | Cmax ([7]; Day 1, 350 mg/kg, F): 228 µg/mL | t1/2 ([7]; Day 1, 350 mg/kg, F): 1.2 h | AUC0-last ([7]; Day 1, 350 mg/kg, M): 613 µg·h/mL | Cmax ([7]; Day 1, 350 mg/kg, M): 176 µg/mL | t1/2 ([7]; Day 1, 350 mg/kg, M): 1.1 h | AUC0-last ([7]; Day 1, 400 mg/kg, F): 464 µg·h/mL | Cmax ([7]; Day 1, 400 mg/kg, F): 109 µg/mL | t1/2 ([7]; Day 1, 400 mg/kg, F): 3.9 h | AUC0-last ([7]; Day 1, 400 mg/kg, M): 657 µg·h/mL | Cmax ([7]; Day 1, 400 mg/kg, M): 167 µg/mL | t1/2 ([7]; Day 1, 400 mg/kg, M): 1.2 h | AUC0-last ([7]; Day 7, 200 mg/kg, F): 411 µg·h/mL | Cmax ([7]; Day 7, 200 mg/kg, F): 103 µg/mL | t1/2 ([7]; Day 7, 200 mg/kg, F): 1.5 h | AUC0-last ([7]; Day 7, 200 mg/kg, M): 540 µg·h/mL | Cmax ([7]; Day 7, 200 mg/kg, M): 121 µg/mL | t1/2 ([7]; Day 7, 200 mg/kg, M): 1.4 h | AUC0-last ([7]; Day 7, 350 mg/kg, F): 738 µg·h/mL | Cmax ([7]; Day 7, 350 mg/kg, F): 207 µg/mL | t1/2 ([7]; Day 7, 350 mg/kg, F): 2.4 h | tmax ([7]; Day 7, 350 mg/kg, F): 0.5 h | AUC0-last ([7]; Day 7, 350 mg/kg, M): 591 µg·h/mL | Cmax ([7]; Day 7, 350 mg/kg, M): 184 µg/mL | t1/2 ([7]; Day 7, 350 mg/kg, M): 1.2 h | AUC0-last ([7]; Day 7, 400 mg/kg, F): 751 µg·h/mL | Cmax ([7]; Day 7, 400 mg/kg, F): 183 µg/mL | t1/2 ([7]; Day 7, 400 mg/kg, F): 2.5 h | AUC0-last ([7]; Day 7, 400 mg/kg, M): 210 µg·h/mL | Cmax ([7]; Day 7, 400 mg/kg, M): 69 µg/mL | t1/2 ([7]; Day 7, 400 mg/kg, M): 1.3 h | hyperalgesia (mechanical thresholds) [8]: not hyperalgesic
